Test results published in ChEMBL document CHEMBL1201862, “PubChem BioAssay data set” (2004).
Several values for one entry are separate records, joined by “and”; a condition that tells them apart may be missing. Equal values may be shown once.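 Exposure lasted 48 hours, with cells grown in 96-well plates and compounds tested at five concentrations. GI50 is the concentration that inhibits growth by half.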 Activity calls are given as the source filed them. Rule as the data show it: active = GI50 up to about 1.1 µM and inactive = higher.

Legend:
Test in all cases: inhibition of tumour cell growth, NCI panel, 48 h
LOX IMVI = system: LOX IMVI
SF-268 = system: SF-268
NCI-H522 = system: NCI-H522
COLO 205 = system: COLO 205
A498 = system: A498
UO-31 = system: UO-31
SNB-75 = system: SNB-75
786-0 = system: 786-0
SW-620 = system: SW-620
HCT-116 = system: HCT-116
U-251 = system: U-251
DU-145 = system: DU-145
SK-MEL-28 = system: SK-MEL-28
MDA-N = system: MDA-N
IGROV-1 = system: IGROV-1
KM12 = system: KM12
SF-295 = system: SF-295
NCI-H460 = system: NCI-H460
NCI-H23 = system: NCI-H23
MDA-MB-435 = system: MDA-MB-435
NCI/ADR-RES = system: NCI/ADR-RES
SR = system: SR
ACHN = system: ACHN
Malme-3M = system: Malme-3M
SNB-19 = system: SNB-19
K562 = system: K562
SN12C = system: SN12C
SK-MEL-2 = system: SK-MEL-2
SK-OV-3 = system: SK-OV-3
T47D = system: T47D
TK-10 = system: TK-10
HT-29 = system: HT-29
M14 = system: M14
HCC 2998 = system: HCC 2998
PC-3 = system: PC-3
UACC-257 = system: UACC-257
CAKI-1 = system: CAKI-1
SK-MEL-5 = system: SK-MEL-5
OVCAR-4 = system: OVCAR-4
RXF 393 = system: RXF 393
HCT-15 = system: HCT-15
A549 = system: A549
SF-539 = system: SF-539
MCF7 = system: MCF7
OVCAR-3 = system: OVCAR-3
HOP-62 = system: HOP-62
NCI-H226 = system: NCI-H226
OVCAR-5 = system: OVCAR-5
OVCAR-8 = system: OVCAR-8
HOP-92 = system: HOP-92
RPMI-8226 = system: RPMI-8226
CCRF-CEM = system: CCRF-CEM
EKVX = system: EKVX
Hs-578T = system: Hs-578T
MOLT-4 = system: MOLT-4

Compound: N#CCCC1(CCC#N)CCCCCCC(CCC#N)(CCC#N)C(O)C1O (stereo not given)
- GI50 (LOX IMVI): > 100 µM (inactive)
- GI50 (SF-268): > 100 µM (inactive)
- GI50 (NCI-H522): > 100 µM (inactive)
- GI50 (COLO 205): 41.9 µM (inactive)
- GI50 (A498): > 100 µM (inactive)
- GI50 (UO-31): > 100 µM (inactive)
- GI50 (SNB-75): > 100 µM (inactive)
- GI50 (786-0): > 100 µM (inactive)
- GI50 (SW-620): > 100 µM (inactive)
- GI50 (HCT-116): > 100 µM (inactive)
- GI50 (U-251): > 100 µM (inactive)
- GI50 (DU-145): > 100 µM (inactive)
- GI50 (SK-MEL-28): > 100 µM (inactive)
- GI50 (MDA-N): > 100 µM (inactive)
- GI50 (IGROV-1): > 100 µM (inactive)
- GI50 (KM12): > 100 µM (inactive)
- GI50 (SF-295): > 100 µM (inactive)
- GI50 (NCI-H460): > 100 µM (inactive)
- GI50 (NCI-H23): > 100 µM (inactive)
- GI50 (MDA-MB-435): > 100 µM (inactive)
- GI50 (NCI/ADR-RES): > 100 µM (inactive)
- GI50 (SR): 65.3 µM (inactive)
- GI50 (ACHN): > 100 µM (inactive)
- GI50 (Malme-3M): > 100 µM (inactive)
- GI50 (SNB-19): > 100 µM (inactive)
- GI50 (K562): > 100 µM (inactive)
- GI50 (SN12C): 52.2 µM (inactive)
- GI50 (SK-MEL-2): > 100 µM (inactive)
- GI50 (SK-OV-3): > 100 µM (inactive)
- GI50 (T47D): > 100 µM (inactive)
- GI50 (TK-10): > 100 µM (inactive)
- GI50 (HT-29): > 100 µM (inactive)
- GI50 (M14): > 100 µM (inactive)
- GI50 (HCC 2998): > 100 µM (inactive)
- GI50 (PC-3): > 100 µM (inactive)
- GI50 (UACC-257): > 100 µM (inactive)
- GI50 (CAKI-1): > 100 µM (inactive)
- GI50 (SK-MEL-5): > 100 µM (inactive)
- GI50 (OVCAR-4): > 100 µM (inactive)
- GI50 (RXF 393): > 100 µM (inactive)
- GI50 (HCT-15): > 100 µM
- GI50 (A549): > 100 µM (inactive)
- GI50 (SF-539): > 100 µM (inactive)
- GI50 (MCF7): > 100 µM (inactive)
- GI50 (OVCAR-3): > 100 µM (inactive)
- GI50 (HOP-62): > 100 µM (inactive)
- GI50 (NCI-H226): 53.8 µM (inactive)
- GI50 (OVCAR-5): > 100 µM (inactive)
- GI50 (OVCAR-8): > 100 µM (inactive)
- GI50 (HOP-92): > 100 µM (inactive)

Compound: CCOP(=O)(OCC)C(C)(CC)NC(=O)C(C(F)(F)F)C(F)(F)F (stereo not given)
- GI50 (LOX IMVI): > 88.3 µM (inactive) and 72.3 µM (inactive)
- GI50 (SF-268): > 100 µM (inactive)
- GI50 (COLO 205): > 100 µM (inactive)
- GI50 (A498): > 100 µM (inactive)
- GI50 (UO-31): > 100 µM (inactive) and 97.3 µM (inactive)
- GI50 (786-0): 40.4 µM (inactive) and 61.5 µM (inactive)
- GI50 (SW-620): > 100 µM (inactive) and 92 µM (inactive)
- GI50 (HCT-116): > 100 µM (inactive)
- GI50 (U-251): > 100 µM (inactive)
- GI50 (DU-145): > 100 µM (inactive)
- GI50 (SK-MEL-28): > 100 µM (inactive)
- GI50 (MDA-N): > 100 µM (inactive)
- GI50 (IGROV-1): > 100 µM (inactive)
- GI50 (KM12): 49.5 µM (inactive) and 58.2 µM (inactive)
- GI50 (SF-295): > 100 µM (inactive)
- GI50 (NCI-H460): > 100 µM (inactive)
- GI50 (NCI-H23): > 100 µM (inactive)
- GI50 (MDA-MB-435): > 100 µM (inactive) and > 87.7 µM (inactive)
- GI50 (NCI/ADR-RES): > 100 µM (inactive)
- GI50 (SR): 63.4 µM (inactive) and 33.8 µM (inactive)
- GI50 (ACHN): > 100 µM (inactive)
- GI50 (Malme-3M): > 100 µM (inactive)
- GI50 (RPMI-8226): 33.3 µM (inactive) and 21.9 µM (inactive)
- GI50 (SNB-19): > 100 µM (inactive)
- GI50 (SN12C): > 100 µM (inactive)
- GI50 (SK-MEL-2): > 100 µM (inactive)
- GI50 (SK-OV-3): > 100 µM (inactive)
- GI50 (TK-10): 75.9 µM (inactive)
- GI50 (HT-29): > 100 µM (inactive)
- GI50 (M14): > 100 µM (inactive)
- GI50 (HCC 2998): > 100 µM (inactive)
- GI50 (PC-3): > 100 µM (inactive)
- GI50 (UACC-257): > 100 µM (inactive)
- GI50 (CAKI-1): > 100 µM (inactive)
- GI50 (SK-MEL-5): > 100 µM (inactive)
- GI50 (CCRF-CEM): 22 µM (inactive) and 21.9 µM (inactive)
- GI50 (OVCAR-4): > 100 µM (inactive)
- GI50 (RXF 393): > 100 µM (inactive)
- GI50 (HCT-15): > 100 µM
- GI50 (A549): > 100 µM (inactive)
- GI50 (EKVX): > 100 µM (inactive)
- GI50 (MCF7): > 31.6 µM (inactive) and 29.7 µM (inactive)
- GI50 (OVCAR-3): > 100 µM (inactive)
- GI50 (HOP-62): > 100 µM (inactive)
- GI50 (NCI-H226): > 100 µM (inactive)
- GI50 (OVCAR-5): > 100 µM (inactive)
- GI50 (Hs-578T): > 100 µM (inactive)
- GI50 (OVCAR-8): > 100 µM (inactive)
- GI50 (HOP-92): > 57 µM (inactive)
- GI50 (MOLT-4): > 49.3 µM (inactive) and 63.4 µM (inactive)
